Measured values taken from patent US7718700B2, “Growth factor-binding compounds and methods of use” (Yale University, priority 2004, dated 2010).
Where “and” joins values, the source holds several entries; their conditions need not be identical. Equal values may be shown once. Read-outs that look alike come from different tables or passages of the source.

What was measured:
pancreatic tumors = conditions: Bergers et al. 2003; cited from earlier work
PDGFR = assay: PDGF-stimulated PDGFR tyrosine phosphorylation in NIH 3T3 cells; format: cell-based, mouse
Method: (§1) Inhibition of growth factor-dependent receptor tyrosine phosphorylation by GFBs. Starved Flk-1/KDR-overexpressing NIH 3T3 cells (Flk-1/NIH 3T3) or NIH 3T3 cells were pretreated with GFBs for 5 min before stimulation with VEGF (50 ng/ml) or PDGF-BB (10 ng/ml) for 10 min, respectively. The cells were then harvested and lysed, and proteins from the lysates were separated by SDS-PAGE and transferred to nitrocellulose. Membranes then were either immunoblotted with anti-phospho-VEGFR2 antibody (Cell Signaling Technologies, Beverly, Mass.) for activated Flk-1 or anti-phospho-tyrosine antibody (4G10, Upstate Biotechnology, Lake Placid, N.Y.) for activated PDGFR. Phosphotyrosine Flk-1 and PDGFR were quantified using a Bio-Rad Model GS-700 Imaging Densitometer (Bio-Rad Laboratories, Inc, Hercules, Calif.) (Blaskovich, M. A. et al. Nat Biotechnol, 2000, 18:1065-70).

VEGFR (Flk-1/KDR) = assay: VEGF-stimulated Flk-1 tyrosine phosphorylation in Flk-1/NIH 3T3 cells; format: cell-based, human
Method: as §1

[1] = system: metastatic colorectal cancer; conditions: patients with metastatic colorectal cancer; cited from earlier work
[2] = PDGF-BB 10 ng/ml stimulated receptor tyrosine phosphorylation, NIH 3T3 cells; read-out: IC50 (μM) PDGFR
[3] = VEGF 50 ng/ml stimulated Flk-1 tyrosine phosphorylation, read-out: IC50 (μM) VEGFR
[4] = read-out: IC50 (μM) VEGFR, VEGF 50 ng/ml stimulated Flk-1 tyrosine phosphorylation
[5] = read-out: IC50 (μM) PDGFR; PDGF-BB 10 ng/ml stimulated receptor tyrosine phosphorylation, NIH 3T3 cells

| Molecule | IC50 (PDGFR; [2]) | IC50 (VEGFR (Flk-1/KDR); [3]) | other results |
| --- | --- | --- | --- |
| Cc1[nH]c(/C=C2\C(=O)Nc3ccccc32)c(C)c1CCC(=O)O [SU6668] | – | – | effect on pancreatic tumors (pancreatic tumors): induced regression of advanced pancreatic tumor at late stage of development |
| CCCCOc1c2cc(C(=O)Nc3cc(C(=O)O)cc(C(=O)NCCC)c3)cc1Cc1cc(C(=O)Nc3cc(C(=O)O)cc(C(=O)NCCC)c3)cc(c1OCCCC)Cc1cc(C(=O)Nc3cc(C(=O)O)cc(C(=O)NCCC)c3)cc(c1OCCCC)Cc1cc(C(=O)Nc3cc(C(=O)O)cc(C(=O)NCCC)c3)cc(c1OCCCC)C2 [GFB215] | 0.21 ± 0.13 µM | > 10 µM | – |
| CCCCOc1c2cc(C(=O)Nc3cc(C(=O)NC(CC(=O)O)C(=O)O)cc(C(=O)NC(Cc4ccc(O)cc4)C(=O)O)c3)cc1Cc1cc(C(=O)Nc3cc(C(=O)NC(CC(=O)O)C(=O)O)cc(C(=O)NC(Cc4ccc(O)cc4)C(=O)O)c3)cc(c1OCCCC)Cc1cc(C(=O)Nc3cc(C(=O)NC(CC(=O)O)C(=O)O)cc(C(=O)NC(Cc4ccc(O)cc4)C(=O)O)c3)cc(c1OCCCC)Cc1cc(C(=O)Nc3cc(C(=O)NC(CC(=O)O)C(=O)O)cc(C(=O)NC(Cc4ccc(O)cc4)C(=O)O)c3)cc(c1OCCCC)C2 (stereo not shown) [GFB205] | – | – | IC50 (VEGFR (Flk-1/KDR); [4]): 5.86 ± 0.68 µM |
| CCCCOc1c2cc(C(=O)Nc3cc(C(=O)O)cc(C(=O)OC)c3)cc1Cc1cc(C(=O)Nc3cc(C(=O)O)cc(C(=O)OC)c3)cc(c1OCCCC)Cc1cc(C(=O)Nc3cc(C(=O)O)cc(C(=O)OC)c3)cc(c1OCCCC)Cc1cc(C(=O)Nc3cc(C(=O)O)cc(C(=O)OC)c3)cc(c1OCCCC)C2 [GFB209] | 2.9 µM and 2.91 µM | 5.58 ± 4.11 µM | – |
| CCCCOc1c2cc(C(=O)Nc3cc(C(=O)O)cc(C(=O)Nc4cccc5ccccc45)c3)cc1Cc1cc(C(=O)Nc3cc(C(=O)O)cc(C(=O)Nc4cccc5ccccc45)c3)cc(c1OCCCC)Cc1cc(C(=O)Nc3cc(C(=O)O)cc(C(=O)Nc4cccc5ccccc45)c3)cc(c1OCCCC)Cc1cc(C(=O)Nc3cc(C(=O)O)cc(C(=O)Nc4cccc5ccccc45)c3)cc(c1OCCCC)C2 [GFB219] | 0.53 ± 0.15 µM | > 10 µM | – |
| CCCCOc1c2cc(C(=O)Nc3cc(C(=O)NC(CC(=O)O)C(=O)O)cc(C(=O)NC(CC(=O)O)C(=O)O)c3)cc1Cc1cc(C(=O)Nc3cc(C(=O)NC(CC(=O)O)C(=O)O)cc(C(=O)NC(CC(=O)O)C(=O)O)c3)cc(c1OCCCC)Cc1cc(C(=O)Nc3cc(C(=O)NC(CC(=O)O)C(=O)O)cc(C(=O)NC(CC(=O)O)C(=O)O)c3)cc(c1OCCCC)Cc1cc(C(=O)Nc3cc(C(=O)NC(CC(=O)O)C(=O)O)cc(C(=O)NC(CC(=O)O)C(=O)O)c3)cc(c1OCCCC)C2 (stereo not shown) [GFB202] | – | – | IC50 (PDGFR; [5]): 1.39 ± 0.38 µM; IC50 (VEGFR (Flk-1/KDR); [4]): 11.3 ± 2.9 µM |
| CCCCOc1c2cc(C(=O)Nc3cc(C(=O)O)cc(C(=O)O)c3)cc1Cc1cc(C(=O)Nc3cc(C(=O)O)cc(C(=O)O)c3)cc(c1OCCCC)Cc1cc(C(=O)Nc3cc(C(=O)O)cc(C(=O)O)c3)cc(c1OCCCC)Cc1cc(C(=O)Nc3cc(C(=O)O)cc(C(=O)O)c3)cc(c1OCCCC)C2 [GFB201] | 2.62 ± 0.5 µM | 4.96 ± 0.34 µM | – |
| CCCCOc1c2cc(C(=O)Nc3cc(C(=O)NCCC(=O)O)cc(C(=O)NCCC(=O)O)c3)cc1Cc1cc(C(=O)Nc3cc(C(=O)NCCC(=O)O)cc(C(=O)NCCC(=O)O)c3)cc(c1OCCCC)Cc1cc(C(=O)Nc3cc(C(=O)NCCC(=O)O)cc(C(=O)NCCC(=O)O)c3)cc(c1OCCCC)Cc1cc(C(=O)Nc3cc(C(=O)NCCC(=O)O)cc(C(=O)NCCC(=O)O)c3)cc(c1OCCCC)C2 [GFB203] | – | 19.8 ± 2.9 µM | – |
| CCCCOc1c2cc(C(=O)Nc3cc(C(=O)NCCC(=O)O)cc(C(=O)N[C@@H](Cc4ccc(OCC(=O)O)cc4)C(=O)O)c3)cc1Cc1cc(C(=O)Nc3cc(C(=O)NCCC(=O)O)cc(C(=O)N[C@@H](Cc4ccc(OCC(=O)O)cc4)C(=O)O)c3)cc(c1OCCCC)Cc1cc(C(=O)Nc3cc(C(=O)NCCC(=O)O)cc(C(=O)N[C@@H](Cc4ccc(OCC(=O)O)cc4)C(=O)O)c3)cc(c1OCCCC)Cc1cc(C(=O)Nc3cc(C(=O)NCCC(=O)O)cc(C(=O)N[C@@H](Cc4ccc(OCC(=O)O)cc4)C(=O)O)c3)cc(c1OCCCC)C2 [GFB208] | 0.84 ± 0.06 µM | – | – |
| CCCCOc1c2cc(C(=O)Nc3cc(C(=O)O)cc(C(=O)NC4CCCCC4)c3)cc1Cc1cc(C(=O)Nc3cc(C(=O)O)cc(C(=O)NC4CCCCC4)c3)cc(c1OCCCC)Cc1cc(C(=O)Nc3cc(C(=O)O)cc(C(=O)NC4CCCCC4)c3)cc(c1OCCCC)Cc1cc(C(=O)Nc3cc(C(=O)O)cc(C(=O)NC4CCCCC4)c3)cc(c1OCCCC)C2 [GFB212] | 0.29 ± 0.08 µM | > 10 µM | – |
| CCCCOc1c2cc(C(=O)Nc3cc(C(=O)NCCC(=O)O)cc(C(=O)N[C@@H](Cc4ccc(O)cc4)C(=O)O)c3)cc1Cc1cc(C(=O)Nc3cc(C(=O)NCCC(=O)O)cc(C(=O)N[C@@H](Cc4ccc(O)cc4)C(=O)O)c3)cc(c1OCCCC)Cc1cc(C(=O)Nc3cc(C(=O)NCCC(=O)O)cc(C(=O)N[C@@H](Cc4ccc(O)cc4)C(=O)O)c3)cc(c1OCCCC)Cc1cc(C(=O)Nc3cc(C(=O)NCCC(=O)O)cc(C(=O)N[C@@H](Cc4ccc(O)cc4)C(=O)O)c3)cc(c1OCCCC)C2 [GFB207] | – | 18.4 ± 2.72 µM | – |
| C=CCNC(=O)c1cc(NC(=O)c2cc3c(OCCCC)c(c2)Cc2cc(C(=O)Nc4cc(C(=O)O)cc(C(=O)NCC=C)c4)cc(c2OCCCC)Cc2cc(C(=O)Nc4cc(C(=O)O)cc(C(=O)NCC=C)c4)cc(c2OCCCC)Cc2cc(C(=O)Nc4cc(C(=O)O)cc(C(=O)NCC=C)c4)cc(c2OCCCC)C3)cc(C(=O)O)c1 [GFB216] | 0.15 ± 0.01 µM | > 10 µM | – |
| CCCCOc1c2cc(C(=O)Nc3cc(C(=O)O)cc(C(=O)NC(C)C)c3)cc1Cc1cc(C(=O)Nc3cc(C(=O)O)cc(C(=O)NC(C)C)c3)cc(c1OCCCC)Cc1cc(C(=O)Nc3cc(C(=O)O)cc(C(=O)NC(C)C)c3)cc(c1OCCCC)Cc1cc(C(=O)Nc3cc(C(=O)O)cc(C(=O)NC(C)C)c3)cc(c1OCCCC)C2 [GFB214] | 0.17 ± 0.02 µM | > 10 µM | – |
| CCCCOc1c2cc(C(=O)Nc3cc(C(=O)O)cc(C(=O)Nc4ccncc4)c3)cc1Cc1cc(C(=O)Nc3cc(C(=O)O)cc(C(=O)Nc4ccncc4)c3)cc(c1OCCCC)Cc1cc(C(=O)Nc3cc(C(=O)O)cc(C(=O)Nc4ccncc4)c3)cc(c1OCCCC)Cc1cc(C(=O)Nc3cc(C(=O)O)cc(C(=O)Nc4ccncc4)c3)cc(c1OCCCC)C2 [GFB218] | 0.54 ± 0.15 µM | > 10 µM | – |
| AVASTIN: humanized anti-VEGF monoclonal antibody | – | – | increase of median survival [1]: 5 months |
| CCCCOc1c2cc(C(=O)Nc3cc(C(=O)O)cc(C(=O)NCc4ccccc4)c3)cc1Cc1cc(C(=O)Nc3cc(C(=O)O)cc(C(=O)NCc4ccccc4)c3)cc(c1OCCCC)Cc1cc(C(=O)Nc3cc(C(=O)O)cc(C(=O)NCc4ccccc4)c3)cc(c1OCCCC)Cc1cc(C(=O)Nc3cc(C(=O)O)cc(C(=O)NCc4ccccc4)c3)cc(c1OCCCC)C2 [GFB211] | – | – | IC50 (PDGFR; [5]): 1.34 ± 0.32 µM; IC50 (VEGFR (Flk-1/KDR); [4]): 13 ± 0.49 µM |
| CCCCOc1c2cc(C(=O)Nc3cc(C(=O)OCc4ccccc4)cc(C(=O)OC(C)(C)C)c3)cc1Cc1cc(C(=O)Nc3cc(C(=O)OCc4ccccc4)cc(C(=O)OC(C)(C)C)c3)cc(c1OCCCC)Cc1cc(C(=O)Nc3cc(C(=O)OCc4ccccc4)cc(C(=O)OC(C)(C)C)c3)cc(c1OCCCC)Cc1cc(C(=O)Nc3cc(C(=O)OCc4ccccc4)cc(C(=O)OC(C)(C)C)c3)cc(c1OCCCC)C2 [GFB217] | – | – | inhibition of PDGF signaling, in words (PDGFR): did not have a significant activity; IC50 (PDGFR; [5]): > 10 µM; IC50 (VEGFR (Flk-1/KDR); [4]): > 10 µM |
| Cc1cc(C)c(/C=C2\C(=O)Nc3ccccc32)[nH]1 [SU5416] | – | – | effect on pancreatic tumors (pancreatic tumors): suppresses early, but not late, development of pancreatic tumors |
| CCCCOc1c2cc(C(=O)Nc3cc(C(=O)O)cc(C(=O)NC(C)(C)C)c3)cc1Cc1cc(C(=O)Nc3cc(C(=O)O)cc(C(=O)NC(C)(C)C)c3)cc(c1OCCCC)Cc1cc(C(=O)Nc3cc(C(=O)O)cc(C(=O)NC(C)(C)C)c3)cc(c1OCCCC)Cc1cc(C(=O)Nc3cc(C(=O)O)cc(C(=O)NC(C)(C)C)c3)cc(c1OCCCC)C2 [GFB213] | 0.57 ± 0.06 µM | 0.85 ± 0.44 µM | – |
| CCCCOc1c2cc(C(=O)Nc3cc(C(=O)O)cc(C(=O)OC(C)(C)C)c3)cc1Cc1cc(C(=O)Nc3cc(C(=O)O)cc(C(=O)OC(C)(C)C)c3)cc(c1OCCCC)Cc1cc(C(=O)Nc3cc(C(=O)O)cc(C(=O)OC(C)(C)C)c3)cc(c1OCCCC)Cc1cc(C(=O)Nc3cc(C(=O)O)cc(C(=O)OC(C)(C)C)c3)cc(c1OCCCC)C2 [GFB210] | – | – | IC50 (PDGFR; [5]): 0.35 ± 0.31 µM; IC50 (VEGFR (Flk-1/KDR); [4]): 4.54 ± 0.55 µM |
